Assay results from patent EP4563146A1 (IRBM S.P.A., priority 2023, dated 2025).
Like-named read-outs stand apart in the source and are kept apart here.

Tested on: ZIKV replicon
Test: ZIKV replication inhibition assay (NanoLuc replicon in Vero cells)
Details: Zika virus, Vero, 72 h
[1] = read-out: ZIKA Cell_Nanoluc, Vero cells with stable ZIKV replicon, 72 h, Nano-Glo readout

Row | SMILES | EC50 [1] | EC50 (read-out: ZIKA Cell_Nanoluc)
1 | COC(=O)c1ccc(C[n+]2cc([N-]C(=O)Nc3cc(NC(=O)Cc4ccccc4)cc(C(F)(F)F)c3)on2)nc1 [Example 113, (3-((5-(Methoxycarbonyl)pyridin-2-yl)methyl)-1,2,3-oxadiazol-3-ium-5-yl)((3-(2-phenylacetamido)-5-(trifluoromethyl)phenyl)carbamoyl)amide] | 1 to 20 µM | –
2 | O=C(Cc1ccccc1)Nc1cc(NC(=O)[N-]c2c[n+](Cc3ccccn3)no2)cc(C(F)(F)F)c1 [Example 7, ((3-(2-Phenylacetamido)-5-(trifluoromethyl)phenyl)carbamoyl)(3-(pyridin-2-ylmethyl)-1,2,3-oxadiazol-3-ium-5-yl)amide] | 0.1 to 1 µM | –
3 | O=C(Cc1ccccc1)Nc1cc(NC(=O)[N-]c2c[n+](Cc3ccc(C(=O)O)cc3)no2)cc(C(F)(F)F)c1 [Example 101, (3-(4-Carboxybenzyl)-1,2,3-oxadiazol-3-ium-5-yl)((3-(2-phenylacetamido)-5-(trifluoromethyl)phenyl)carbamoyl)amide] | > 20 µM | –
4 | NC[C@H]1CC[C@@H](C[n+]2cc([N-]C(=O)Nc3cc(N4CCC(c5ccccc5)C4=O)cc(C(F)(F)F)c3)on2)CC1 (stereo partly drawn) [Example 133, (3-(((1S,4S)-4-(Aminomethyl)cyclohexyl)-methyl)-1,2,3-oxadiazol-3-ium-5-yl)((3-(2-oxo-3-phenylpyrrolidin-1-yl)-5-(trifluoromethyl)-phenyl)carbamoyl)amide] | – | 1 to 20 µM
5 | COc1ncc(-c2ccc(C[n+]3cc([N-]C(=O)Nc4cc(NS(=O)(=O)Cc5ccccc5)cc(C(F)(F)F)c4)on3)cc2)c(C)n1 [Example 10, (3-(4-(2-Methoxy-4-methylpyrimidin-5-yl)benzyl)-1,2,3-oxadiazol-3-ium-5-yl)((3-((phenylmethyl)sulfonamido)-5-(trifluoromethyl)phenyl)carbamoyl)amide] | 0.1 to 1 µM | –
6 | O=C(Cc1ccccc1)Nc1cc(NC(=O)[N-]c2c[n+](Cc3ccc(CO)cc3)no2)cc(C(F)(F)F)c1 [Example 102, (3-(4-(Hydroxymethyl)benzyl)-1,2,3-oxadiazol-3-ium-5-yl)((3-(2-phenylacetamido)-5-(trifluoromethyl)phenyl)carbamoyl)amide] | 1 to 20 µM | –
7 | O=C(Cc1ccccc1)Nc1cc(NC(=O)[N-]c2c[n+](Cc3ccccn3)no2)cc(C2CC2)c1 [Example 89, ((3-Cyclopropyl-5-(2-phenylacetamido)phenyl)carbamoyl)(3-(pyridin-2-ylmethyl)-1,2,3-oxadiazol-3-ium-5-yl)amide] | 1 to 20 µM | –
8 | O=C(Cn1c(C(F)F)nc2ccccc21)Nc1cc(NC(=O)[N-]c2c[n+](Cc3ccccn3)no2)cc(C(F)(F)F)c1 [Example 65] | – | > 20 µM
9 | O=C([N-]c1c[n+](Cc2ccccn2)no1)Nc1cc(NC(=O)c2cnn(Cc3ccccc3)c2)cc(C(F)(F)F)c1 [Example 35] | – | 1 to 20 µM
10 | O=C(CS(=O)(=O)c1ccccc1)Nc1cc(NC(=O)[N-]c2c[n+](Cc3ccccn3)no2)cc(C(F)(F)F)c1 [Example 43] | – | 1 to 20 µM
11 | O=C(Cc1ccccc1)Nc1cc(NC(=O)[N-]c2c[n+](CC3CCNCC3)no2)cc(C(F)(F)F)c1 [Example 120] | – | > 20 µM
12 | O=C(Cc1cc(NC(=O)[N-]c2c[n+](Cc3ccccn3)no2)cc(C(F)(F)F)c1)NCc1ccccc1 [Example 90, ((3-(2-(Benzylamino)-2-oxoethyl)-5-(trifluoromethyl)phenyl)carbamoyl)(3-(pyridin-2-ylmethyl)-1,2,3-oxadiazol-3-ium-5-yl)amide] | 1 to 20 µM | –
13 | O=C([N-]c1c[n+](Cc2ccccn2)no1)Nc1cc(NC(=O)c2ccc3c(n2)CCO3)cc(C(F)(F)F)c1 [Example 79] | – | 1 to 20 µM
14 | O=C([N-]c1c[n+](Cc2ccccn2)no1)Nc1cc(NC(=O)C2(Oc3ccc(Cl)cc3)COC2)cc(C(F)(F)F)c1 [Example 83] | – | 1 to 20 µM
15 | O=C([N-]c1c[n+](C[C@H]2CC[C@H](NC(=O)C(F)(F)F)CC2)no1)Nc1cc(N2CC[C@H](c3ccccc3)C2=O)cc(C(F)(F)F)c1 [Example 145, ((3-((R)-2-Oxo-3-phenylpyrrolidin-1-yl)-5-(trifluoromethyl)phenyl)carbamoyl)(3-(((1R,4R)-4-(2,2,2-trifluoroacetamido)cyclohexyl)methyl)-1,2,3-oxadiazol-3-ium-5-yl)amide] | – | 1 to 20 µM
16 | NCc1ccccc1-c1ccc(C[n+]2cc([N-]C(=O)Nc3cc(NC(=O)Cc4ccccc4)cc(C(F)(F)F)c3)on2)nc1 [Example 5, (3-((5-(2-(Aminomethyl)phenyl)pyridin-2-yl)methyl)-1,2,3-oxadiazol-3-ium-5-yl)((3-(2-phenylacetamido)-5-(trifluoromethyl)phenyl)carbamoyl)amide] | 1 to 20 µM | –
17 | CN(CC(F)(F)F)[C@H]1CC[C@H](C[n+]2cc([N-]C(=O)Nc3cc(N4CC[C@H](c5ccccc5)C4=O)cc(C(F)(F)F)c3)on2)CC1 [Example 146, (3-(((1R,4R)-4-(Methyl(2,2,2-trifluoroethyl)-amino)cyclohexyl)methyl)-1,2,3-oxadiazol-3-ium-5-yl)((3-((R)-2-oxo-3-phenylpyrrolidin-1-yl)-5-(trifluoromethyl)phenyl)carbamoyl)amide] | – | 0.1 to 1 µM
18 | O=C(CC1CCC1)Nc1cc(NC(=O)[N-]c2c[n+](Cc3ccccn3)no2)cc(C(F)(F)F)c1 [Example 54] | – | 1 to 20 µM

Row | SMILES | EC50 [1] | EC50 (read-out: ZIKA Cell_Nanoluc)
19 | COc1ncc(-c2ccc(C[n+]3cc([N-]C(=O)Nc4cc(NC(=O)CC5CCCCC5)cc(C(F)(F)F)c4)on3)cc2)c(C)n1 [Example 8] | – | 1 to 20 µM
20 | O=C(Cc1ccccc1)Nc1cc(NC(=O)[N-]c2c[n+](CC3CNCCCO3)no2)cc(C(F)(F)F)c1 (centres unmarked) [Example 115, (3-((1,4-oxazepan-2-yl)methyl)-1,2,3-oxadiazol-3-ium-5-yl)((3-(2-phenylacetamido)-5-(trifluoromethyl)phenyl)carbamoyl)amide] | 1 to 20 µM | –
21 | COc1ncc(-c2ccc(C[n+]3cc([N-]C(=O)Nc4cc(NS(=O)(=O)CC5CCCCC5)cc(C(F)(F)F)c4)on3)cc2)c(C)n1 [Example 2, ((3-((Cyclohexylmethyl)sulfonamido)-5-(trifluoromethyl)phenyl)carbamoyl)(3-(4-(2-methoxy-4-methylpyrimidin-5-yl)benzyl)-1,2,3-oxadiazol-3-ium-5-yl)amide] | > 20 µM | –
22 | Cn1cnnc1COCC(=O)Nc1cc(NC(=O)[N-]c2c[n+](Cc3ccccn3)no2)cc(C(F)(F)F)c1 [Example 72] | – | > 20 µM
23 | O=C(Cc1ccccc1)Nc1cc(NC(=O)[N-]c2c[n+](CC3CCN(CCO)CC3)no2)cc(C(F)(F)F)c1 [Example 141, (3-((1-(2-Hydroxyethyl)piperidin-4-yl)methyl)-1,2,3-oxadiazol-3-ium-5-yl)((3-(2-phenylacetamido)-5-(trifluoromethyl)phenyl)-carbamoyl)amide] | 1 to 20 µM | –
24 | CC(c1ccc(C(=O)Nc2cc(NC(=O)[N-]c3c[n+](Cc4ccccn4)no3)cc(C(F)(F)F)c2)cc1)S(N)(=O)=O (centres unmarked) [Example 78, (3-(Pyridin-2-ylmethyl)-1,2,3-oxadiazol-3-ium-5-yl)((3-(4-(1-sulfamoylethyl)-benzamido)-5-(trifluoromethyl)phenyl)carbamoyl)amide] | > 20 µM | –
25 | CC(C(=O)Nc1cc(NC(=O)[N-]c2c[n+](Cc3ccccn3)no2)cc(C(F)(F)F)c1)c1ccccc1 (centres unmarked) [Example 32] | – | 0.1 to 1 µM
26 | O=C([N-]c1c[n+](Cc2ccccn2)no1)Nc1cc(NC(=O)c2ccc3[nH]cnc3c2)cc(C(F)(F)F)c1 [Example 29, ((3-(1H Benzo[d]imidazole-5-carboxamido)-5-(trifluoromethyl)phenyl)-carbamoyl)(3-(pyridin-2-ylmethyl)-1,2,3-oxadiazol-3-ium-5-yl)amide] | 1 to 20 µM | –
27 | CN1CC(C(=O)Nc2cc(NC(=O)[N-]c3c[n+](Cc4ccccn4)no3)cc(C(F)(F)F)c2)C1 [Example 49] | – | 1 to 20 µM
28 | O=C([N-]c1c[n+](C[C@H]2CC[C@H](NCC(F)(F)F)CC2)no1)Nc1cc(N2CCC(c3ccccc3)C2=O)cc(C(F)(F)F)c1 (stereo partly drawn) [Example 137, ((3-(2-Oxo-3-phenylpyrrolidin-1-yl)-5-(trifluoromethyl)phenyl)carbamoyl)(3-(((1R,4R)-4-((2,2,2-trifluoroethyl)amino)-cyclohexyl)methyl)-1,2,3-oxadiazol-3-ium-5-yl)amide] | – | 0.1 to 1 µM
29 | COc1ncc(-c2ccc(C[n+]3cc([N-]C(=O)Nc4cc(NC(=O)Cc5cccnc5)cc(C(F)(F)F)c4)on3)cc2)c(C)n1 [Example 19, (3-(4-(2-Methoxy-4-methylpyrimidin-5-yl)benzyl)-1,2,3-oxadiazol-3-ium-5-yl)((3-(2-(pyridin-3-yl)acetamido)-5-(trifluoromethyl)phenyl)carbamoyl)amide] | 1 to 20 µM | –
30 | Cc1noc(C)c1-c1ccc([C@H](CN)[n+]2cc([N-]C(=O)Nc3cc(NC(=O)Cc4ccccc4)cc(C(F)(F)F)c3)on2)cc1 [Example 23, (R)-(3-(2-Amino-1-(4-(3,5-dimethylisoxazol-4-yl)phenyl)ethyl)-1,2,3-oxadiazol-3-ium-5-yl)((3-(2-phenylacetamido)-5-(trifluoromethyl)phenyl)-carbamoyl)amide] | 1 to 20 µM | –
31 | C[C@@H]1C[C@H]1c1cc(NC(=O)Cc2ccccc2)cc(NC(=O)[N-]c2c[n+](Cc3ccccn3)no2)c1 [Example 130, ((3-((1R,2R)-2-Methylcyclopropyl)-5-(2-phenylacetamido)phenyl)-carbamoyl)(3-(pyridin-2-ylmethyl)-1,2,3-oxadiazol-3-ium-5-yl)amide] | 1 to 20 µM | –
32 | Cc1cc(NC(=O)Cc2ccccc2)cc(NC(=O)[N-]c2c[n+](Cc3ccccn3)no2)c1 [Example 57, ((3-Methyl-5-(2-phenylacetamido)phenyl)carbamoyl)(3-(pyridin-2-ylmethyl)-1,2,3-oxadiazol-3-ium-5-yl)amide] | > 20 µM | –
33 | COc1ncc(-c2ccc(C[n+]3cc([N-]C(=O)Nc4cc(NC(C)=O)cc(C(F)(F)F)c4)on3)cc2)c(C)n1 [Example 11] | – | 1 to 20 µM
34 | N#Cc1ccn(C2(C(=O)Nc3cc(NC(=O)[N-]c4c[n+](Cc5ccccn5)no4)cc(C(F)(F)F)c3)CC2)n1 [Example 71] | – | 1 to 20 µM
35 | O=C([N-]c1c[n+](Cc2ccccn2)no1)Nc1cc(NC(=O)c2cnccn2)cc(C(F)(F)F)c1 [Example 45] | – | 1 to 20 µM
